Results as given in patent US20040006070A1, “Intraspinal continuous infusion of midazolam hydrochloride for the treatment of pain” (priority 2002, published 2004).
Several values for one entry are separate records, joined by “and”; a condition that tells them apart may be missing. Equal entries are not always repeated. Entries after “also recorded” stand apart in the source; their conditions may differ. Structures can show the parent of a compound that is named as a salt.

Tests used:
[1] = CSF fluid analysis and routine cultures; type: in vivo, sheep; conditions: for CSF RBC Count Post Mortum / CSF WBC Count Post Mortum / CSF Glucose Post Mortum / CSF Total Protein Post Mortum: day 43
Description: (§1) On day 43 after venous blood samples were taken, animals were euthanized (Beuthanasia 1 ml/4.5 kg IV bolus injection). CSF samples were obtained for analysis (1-2 ml drawn from L-7/S-1 after a laminectomy was performed to expose the dura) of glucose, total protein, and cell differential.

[2] = Toxicity of continuous intrathecal infusion in acute pain sheep: clinical symptoms, necropsy, histology; type: in vivo
Description: The inventors have completed a toxicity and efficacy study of intrathecal midazolam hydrochloride in 15 sheep instrumented with Medtronic SynchroMed® infusion systems. The surgical procedure and the hardware used in these animals was analogous to that utilized in humans. The first sheep was tested for toxicity only (3 mg/day), and all subsequent animals tested for both toxicity and analgesic activity.
Open-label (known dose) trial: A trial with known midazolam doses was performed in the first 7 sheep. Animals were administered 3 mg/day (N=1), 5 mg/day (N=1), 10 mg/day (N=1), and 15 mg/day (N=4) for 43 days. These doses were chosen based upon previous intrathecal bolus dose studies in rats and humans, with conversion of from species to species based on cerebral spinal fluid (CSF) production rate and total CSF volume. Analgesic activity was assessed using a mechanical stimulus device which produces a stimulus of acute pain by application of force via a blunt needle applied to the shaved front foreleg of the animal. Force is applied with increasing pressure until the animal lifts its leg in response to the painful stimulus. To evaluate the analgesic effect of midazolam, response latencies were expressed as a percentage of the maximum possible effect, % MPE. The response latency is defined as follows: [formula]
as §1

[3] = Toxicity testing of midazolam in the pig model, closed label (swine data); type: in vivo
Description: Another closed label study was performed in pigs. This study was performed in response to implications of possible species-related toxicity reported by researchers in Turkey and France (Malinovsky et al., 1991; Svensson et al., 1995; Erdine et al, 1999). […] Rats were administered single or multiple bolus doses for 20 days. Rabbits were administered bolus injections of 0.1% midazolam (pH 3.3) in 0.3 ml or preservative-free midazolam (pH 3.5) in 0.3 ml for one day or five consecutive days. To further assess the safety of spinally administered midazolam by continuous infusion in a second species, three pigs were instrumented with Medtronic SynchroMed® intrathecal infusion systems. Pigs were administered 15 mg/day (N=2), or saline control (N=1).

[4] = test system: neuropathic pain model in the sheep; experiment: Neuropathic pain model in sheep, behavior monitoring (Observer 3.0) with visual analog pain score; type: in vivo; conditions: for average pain score: sheep #980 Dudley
From the text: The neuropathic pain model in the sheep is created by placing four tight ligatures around the median, radial, or ulnar nerve (or a combination thereof) with 0-chromic gut suture. This method produces a chronic painful peripheral mononeuropathy which may be related to those conditions seen in humans with causalgia and reflex sympathetic dystrophy.
To evaluate animal behavior, the Observer 3.0 software (Noldus Information Technology, The Netherlands) was used to aid docmentation of a daily record of multiple traits. […] The behavior was then interpreted into a visual analog pain score (VAS), where 0 represents no pain and 100 represents severe pain.
Approximately three days prior to surgery each sheep will undergo a 15-minute baseline behavior evaluation. The observations made in this evaluation include, a computerized behavior software recording (the Observer) for 15minutes—gait monitoring—and recording of pain perception via visual analog scale-using the Observer. In some animals, recording of vital signs (blood pressure, heart rate, respirations per minute) will be performed using the Observer. Baseline values for pain perception are recorded via the mechanical stimulus device and/or behavior monitoring will also be performed at this time.
The sheep will be observed daily postoperatively. […] Observations of neuropathic pain development include changes in ambulation, alertness, appetite, urination, defecation, herding activity, body temperature and pain behaviors. This daily behavior is recorded utilizing the observer (an observational software system).

[5] = rat, single or multiple intrathecal bolus doses for 20 days; cited from earlier work
[6] = CSF, double blinded study, individual sheep, dose group not given, hydrochloride
[7] = open label sheep Red #473, 3 mg/day
[8] = open label sheep Sandy #518, 5 mg/day
[9] = open label sheep Toad #498, 10 mg/day
[10] = double blinded sheep Chicken Hawk #87, 5 mg/day, 43 days
[11] = double blinded sheep Elmer Fudd #437, 5 mg/day, 43 days
[12] = double blinded sheep Leghorn II #815, 15 mg/day, 43 days
[13] = double blinded sheep Petunia #439, 15 mg/day, 43 days
[14] = double blinded sheep Porky #402, 5 mg/day, 43 days
[15] = double blinded sheep Roadrunner #84, 15 mg/day, 43 days
[16] = open label sheep Dot #85, 15 mg/day, 43 days
[17] = open label sheep Wacko #83, 15 mg/day, 43 days
[18] = open label sheep Yacko #91, 15 mg/day, 43 days
[19] = CSF, individual pigs, 15 mg, hydrochloride
[20] = individual pigs, Drug Dose 15 mg, hydrochloride
[21] = pigs, 15 mg/day continuous intrathecal infusion (N=2)
[22] = sheep Rowdy #819, 5 mg, daily values, hydrochloride, on May 29, 2001
[23] = sheep Rowdy #819, 5 mg, daily values, hydrochloride, on May 30, 2001

Cc1ncc2n1-c1ccc(Cl)cc1C(c1ccccc1F)=NC2 [Midazolam, midazolam hydrochloride]
Gross Exam Post Mortum ([1]; CSF, double blinded study, individual sheep, dose group (5 or 15 mg/day or saline) not given, hydrochloride): cloudy; also recorded: Colorless; also recorded: clear; also recorded: Pale pink; also recorded: Cloudy** | Glucose Post Mortum [1, 6]: 35 mg/dL and 25 mg/dL and 31 mg/dL and 38 mg/dL and 24 mg/dL and 47 mg/dL and 34 mg/dL | RBC Count Post Mortum [1, 6]: 480 µL⁻¹ and 725 µL⁻¹ and 4250 µL⁻¹ and 63 µL⁻¹ and 2 µL⁻¹ and 4 µL⁻¹ and 1325 µL⁻¹ | Total Protein Post Mortum [1, 6]: 73 mg/dL and 40 mg/dL and 47 mg/dL and 35 mg/dL and 59 mg/dL and 39 mg/dL and 42 mg/dL | WBC Count Post Mortum [1, 6]: 12 µL⁻¹ and 80 µL⁻¹ and 22 µL⁻¹ and 8 µL⁻¹ and 1 µL⁻¹ and 4 µL⁻¹ and 29 µL⁻¹ | Routine Cultures Post Mortum ([1]; CSF, individual sheep, cell wraps 'No' / 'Growth', dose group not given): No | CSF RBC Count Post Mortum [1, 7]: 772 µL⁻¹ | CSF WBC Count Post Mortum [1, 7]: 4 µL⁻¹ | CSF Glucose Post Mortum [1, 8]: 36 mg/dL | CSF RBC Count Post Mortum [1, 8]: 56 µL⁻¹ | CSF Total Protein Post Mortum [1, 8]: 46.1 mg/dL | CSF WBC Count Post Mortum [1, 8]: 206 µL⁻¹ | CSF Glucose Post Mortum [1, 9]: 40 mg/dL | CSF RBC Count Post Mortum [1, 9]: 2160 µL⁻¹ | CSF Total Protein Post Mortum [1, 9]: 39.6 mg/dL | CSF WBC Count Post Mortum [1, 9]: 36 µL⁻¹ | inflammatory lesions ([2]; any sheep receiving midazolam alone in the acute pain sheep study): no significant inflammatory lesions were observed | behavioral, toxicological, or histopathologic changes related to the infusion ([2]; closed label sheep, continuous infusion 5 or 15 mg/day): did not produce any behavioral, toxicological, or histopathologic changes | Histology [2, 10]: mild catheter reaction | Necropsy [2, 10]: no gross lesions noted | Histology [2, 11]: mild catheter reaction | Necropsy [2, 11]: no gross lesions noted | Histology [2, 12]: mild catheter reaction | Necropsy [2, 12]: No obvious lesions where detected | Histology [2, 13]: mild catheter reaction | Necropsy [2, 13]: no gross lesions noted | Histology [2, 14]: mild catheter reaction | Necropsy [2, 14]: no gross lesions noted | Histology [2, 15]: mild catheter reaction | Necropsy [2, 15]: no gross lesions noted | clinical symptoms ([2]; open label sheep #457 Tazz, 15 mg/day, 43 days): No clinical symptoms | clinical symptoms ([2]; open label sheep #498 Toad, 10 mg/day, 43 days): No clinical symptoms | clinical symptoms ([2]; open label sheep #518 Sandy, 5 mg/day, 43 days): No clinical symptoms | Histology [2, 16]: mild catheter reaction | Necropsy [2, 16]: no gross lesions noted | Histology [2, 17]: mild catheter reaction | Necropsy [2, 17]: no gross lesions noted | Histology [2, 18]: mild catheter reaction | Necropsy [2, 18]: no gross lesions noted | behavioral, toxicological, or histopathologic changes related to the infusion ([2]; open label sheep, continuous infusion 3-15 mg/day, 43 days): did not produce any behavioral, toxicological, or histopathologic changes | Routine Cultures Post Mortum ([3]; CSF, individual pigs, 15 mg, cell wraps 'No' / 'Growth'): No | Glucose Post Mortum [3, 19]: 11 mg/dL and 31 mg/dL | Gross Exam Post Mortum [3, 19]: Colorless; also recorded: cloudy; also recorded: clear | RBC Count Post Mortum [3, 19]: 1,350 /ul and 0 /ul | Total Protein Post Mortum [3, 19]: 73 mg/dL and 39 mg/dL | WBC Count Post Mortum [3, 19]: 888 µL⁻¹ and 117 µL⁻¹ | clinical symptoms ([3]; individual pigs, Drug Dose 15 mg): none | Final Weight [3, 20]: 147 and 170 | Histopathological Changes [3, 20]: Most foreign body reaction in all the pigs; also recorded: The least foreign body reaction in all the pigs. The spinal reaction | clinical or gross changes at necropsy [3, 21]: No clinical or gross changes at necropsy were observed | histology, toxicity related to the infusion [3, 21]: no evidence of toxicity related to the midazolam infusion | VAS score (0 no pain, 100 severe pain) ([4]; average on most days, intrathecal 3 to 6 mg/day, saline pretreatment 60 to 95): approximately 30 | VAS score, average ([4]; first sheep (Rowdy), 5 mg/day): 30% | analgesia at higher doses ([4]; first sheep (Rowdy), after dose escalation to 15 mg/day): less analgesia | analgesic activity against neuropathic pain ([4]; intrathecal up to 5 mg/day): had analgesic activity against neuropathic pain | average pain score ([4]; 3 mg/day for 13 days): 32% | average pain score ([4]; 6 mg/day, remainder of the study): 35% | average pain score ([4]; reinstituted 3 mg/day escalated to 5 mg/day over 7 days): 65% | Other behavior: Observe operated leg ([4]; sheep Rowdy #819, 5 mg): 0.56% | Eating [4, 22]: 69.88% | Holding operated leg off the ground [4, 22]: 5.77% | Holding unoperated leg off the ground [4, 22]: 0.90% | Walking [4, 22]: 5.07% | Eating [4, 23]: 83.94% | Holding operated leg off the ground [4, 23]: 6.24% | Holding unoperated leg off the ground [4, 23]: 0.56% | Walking [4, 23]: 4.22% | Other behavior: Eating lying down ([4]; sheep Rowdy #819, 10 mg): 0.29% | Eating ([4]; sheep Rowdy #819, 15 mg): 3.29% | Holding operated leg off the ground ([4]; sheep Rowdy #819, 15 mg): 8.55% | Holding unoperated leg off the ground ([4]; sheep Rowdy #819, 15 mg): 0.81% | Other behavior: Bleating ([4]; sheep Rowdy #819, 15 mg): 0.86% | Other behavior: Pulling wool ([4]; sheep Rowdy #819, 15 mg): 1.11% | Other behavior: Standing ruminating ([4]; sheep Rowdy #819, 15 mg): 70.19% | Pain Score ([4]; sheep Rowdy #819, 15 mg): 40 | Standing ([4]; sheep Rowdy #819, 15 mg): 13.79% | Walking ([4]; sheep Rowdy #819, 15 mg): 1.40% | neurotoxicity [5]: neurotoxicity
